Earlier results on three compounds are cited in US20230165862A1, “CANCER THERAPY USING 3,5-DISUBSTITUTED BENZENE ALKYNYL COMPOUND AND MEK INHIBITOR” (TAIHO PHARMACEUTICAL CO., LTD., priority 2020, published 2023).

The conditions of data set [1]: human; 30 mg or more per dose twice daily.
The conditions of data set [2]: human; steady-state PK, dose of 40 mg in Stage 1 (21/7), once daily.
The conditions of data set [3]: human; 0.5 mg or more per dose once daily.

A value given as a limit tells only on which side of the number the result lay.

Consider `Cn1cnc2c(F)c(Nc3ccc(Br)cc3F)c(C(=O)NOCCO)cc21` [Binimetinib, 5-[(4-bromofluorophenyl)amino]-4-fluoro-N-(2-hydroxyethoxy)-1-methyl-1H-benzimidazole-6-carboxamide], for which the “Time a blood concentration of 18.45 ng/mL (corresponds to 100 nM) is achieved” value in data set [1] is given as “more than 8 hours”.
Take `O=C(c1ccc(F)c(F)c1Nc1ccc(I)cc1F)N1CC(O)([C@@H]2CCCCN2)C1` [Cobimetinib, [3,4-difluoro-2-[(2-fluoro-4-iodophenyl)amino]phenyl][3-hydroxy-3-[(2S)-2-piperidinyl]-1-azetidinyl]methanone]: in data set [2], the “Time a concentration higher than 53 ng/mL (corresponds to 100 nM) is achieved” value is 14 h.
`CC(=O)Nc1cccc(-n2c(=O)n(C3CC3)c(=O)c3c(Nc4ccc(I)cc4F)n(C)c(=O)c(C)c32)c1` [Trametinib, N-(3-{3-cyclopropyl-5-[(2-fluoro-4-iodophenyl)amino]-6,8-dimethyl-2,4,7-trioxo-3,4,6,7-tetrahydropyrido[4,3-d]pyrimidin-1(2H)-yl}phenyl)acetamide]: the “Time a blood concentration of 1.3 ng/mL (corresponds to 10 nM) is achieved” value in data set [3] is at least 24 h.
